Experimental data as given in PubChem BioAssay AID248 (DTP/NCI, 2004).
“And” between values parts separate entries of the source, which are not always exact repeats. Identical values can stand only once. Toxic doses and inconclusive results are not listed. Rule as the data show it: active = T/C of 150% or more; inactive = T/C below 125%. Square brackets hold non-standard residues; d marks the D form. Peptide text beside a SMILES is read from it. ξ: configuration not given here. ξY = NC(Cc1ccc(O)cc1)C(=O)O

System: L1210 leukemia ip in BDF1 mice, survival T/C
Assay: NCI In Vivo Anticancer Drug Screen. Data for tumor model L1210 Leukemia (intraperitoneal) in B6D2F1 (BDF1) mice
Conditions: endpoint: mean survival time, higher = longer survival
Method in brief: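 Read-out is survival time, reported as the treated-group measurement over the vehicle-control measurement.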

[1] = dose: 100.0 mg/kg/injection, schedule: Q01DX001 (ip), vehicle: saline with Tween-80
[2] = dose: 200.0 mg/kg/injection, schedule: Q01DX001 (ip), vehicle: saline with Tween-80
[3] = dose: 400.0 mg/kg/injection, schedule: Q01DX001 (ip), vehicle: saline with Tween-80
[4] = dose: 100.0 mg/kg/injection, schedule: Q04DX003 (ip), vehicle: saline
[5] = dose: 100.0 mg/kg/injection, schedule: Q01DX009 (ip), vehicle: Klucel (hydroxypropylcellulose) (HPC)
[6] = dose: 100.0 mg/kg/injection, schedule: Q04DX003 (ip), vehicle: Klucel (hydroxypropylcellulose) (HPC)
[7] = dose: 200.0 mg/kg/injection, schedule: Q01DX009 (ip), vehicle: Klucel (hydroxypropylcellulose) (HPC)
[8] = dose: 200.0 mg/kg/injection, schedule: Q04DX003 (ip), vehicle: Klucel (hydroxypropylcellulose) (HPC)
[9] = dose: 400.0 mg/kg/injection, schedule: Q01DX009 (ip), vehicle: Klucel (hydroxypropylcellulose) (HPC)
[10] = dose: 400.0 mg/kg/injection, schedule: Q04DX003 (ip), vehicle: Klucel (hydroxypropylcellulose) (HPC)
[11] = dose: 100.0 mg/kg/injection, schedule: Q01DX001 (ip), vehicle: saline
[12] = dose: 200.0 mg/kg/injection, schedule: Q01DX001 (ip), vehicle: saline
[13] = dose: 400.0 mg/kg/injection, schedule: Q01DX001 (ip), vehicle: saline
[14] = dose: 100.0 mg/kg/injection, schedule: Q01DX009 (ip), vehicle: saline with Tween-80
[15] = dose: 200.0 mg/kg/injection, schedule: Q01DX009 (ip), vehicle: saline with Tween-80
[16] = dose: 400.0 mg/kg/injection, schedule: Q01DX009 (ip), vehicle: saline with Tween-80

Measured: T/C

CCOC(=O)CCC(NC(=O)c1ccc(NCc2nnc3nc(N)nc(SCc4ccccc4)c3n2)cc1)C(=O)OCC (configuration not stated)
inactive: [1] 103 % of control | [2] 100 % of control | [3] 105 % of control

NC1CC(N)CC(N)C1 (configuration not stated)
inactive: dose: 25.0 mg/kg/injection, schedule: Q04DX003 (ip), vehicle: saline 92 % of control | dose: 50.0 mg/kg/injection, schedule: Q04DX003 (ip), vehicle: saline 99 % of control | [4] 86 % of control and 91 % of control

COc1ccc(OC)c(NC(=S)NC(=O)c2cccc([N+](=O)[O-])c2)c1
inactive: [5] 106 % of control | [6] 120 % of control | [7] 106 % of control | [8] 100 % of control | [9] 94 % of control | [10] 97 % of control

NCC(=O)NC(Cc1ccc(O)cc1)C(=O)O (configuration not stated) (H-Gly-[ξY]-OH)
inactive: [11] 104 % of control | [12] 105 % of control and 102 % of control | [13] 98 % of control and 93 % of control

CC(C)(C)c1ccc2c(c1)CCCC2
inactive: dose: 50.0 mg/kg/injection, schedule: Q01DX009 (ip), vehicle: saline with Tween-80 93 % of control | [14] 89 % of control | [15] 96 % of control

C1CCC2C(C1)CCCC2CC1CCCC2CCCCC21 (configuration not stated)
inactive: dose: 75.0 mg/kg/injection, schedule: Q01DX001 (ip), vehicle: acetone 100 % of control | dose: 150.0 mg/kg/injection, schedule: Q01DX001 (ip), vehicle: acetone 106 % of control | dose: 300.0 mg/kg/injection, schedule: Q01DX001 (ip), vehicle: acetone 100 % of control

NC1=NC=NCN1c1ccc(N)cc1
inactive: dose: 25.0 mg/kg/injection, schedule: Q01DX001 (ip), vehicle: saline with Tween-80 96 % of control | dose: 50.0 mg/kg/injection, schedule: Q01DX001 (ip), vehicle: saline with Tween-80 102 % of control | [1] 104 % of control

CSc1ncc(Br)c(Cl)n1
inactive: dose: 5.0 mg/kg/injection, schedule: Q01DX001 (ip), vehicle: carboxymethylcellulose (CMC) 95 % of control | dose: 10.0 mg/kg/injection, schedule: Q01DX001 (ip), vehicle: carboxymethylcellulose (CMC) 98 % of control | dose: 20.0 mg/kg/injection, schedule: Q01DX001 (ip), vehicle: carboxymethylcellulose (CMC) 95 % of control | dose: 40.0 mg/kg/injection, schedule: Q01DX001 (ip), vehicle: carboxymethylcellulose (CMC) 93 % of control | dose: 80.0 mg/kg/injection, schedule: Q01DX001 (ip), vehicle: carboxymethylcellulose (CMC) 93 % of control

CCCCCOC(CN)C(Cl)(Cl)Cl (configuration not stated)
inactive: dose: 25.0 mg/kg/injection, schedule: Q01DX009 (ip), vehicle: saline 93 % of control | dose: 50.0 mg/kg/injection, schedule: Q01DX009 (ip), vehicle: saline 97 % of control | [4] 91 % of control

O=C(O)c1c(Cl)nsc1Cl
inactive: [5] 98 % of control | [7] 98 % of control

O=S(=O)(C(Cl)Cl)C(Cl)(Cl)S(=O)(=O)C(Cl)Cl
inactive: dose: 25.0 mg/kg/injection, schedule: Q01DX009 (ip), vehicle: Klucel (hydroxypropylcellulose) (HPC) 96 % of control | dose: 50.0 mg/kg/injection, schedule: Q01DX009 (ip), vehicle: Klucel (hydroxypropylcellulose) (HPC) 102 % of control | [5] 94 % of control and 90 % of control

OCC(F)(F)F
inactive: dose: 50.0 mg/kg/injection, schedule: Q01DX001 (ip), vehicle: saline 98 % of control | [11] 110 % of control | [12] 102 % of control | [13] 108 % of control

CCCCCCCCCCCC(=O)NC(=S)NCc1cccnc1
inactive: [1] 92 % of control | [14] 101 % of control and 105 % of control | dose: 100.0 mg/kg/injection, schedule: Q04DX002 (ip), vehicle: saline with Tween-80 98 % of control and 100 % of control | [2] 93 % of control | [15] 99 % of control and 107 % of control | dose: 200.0 mg/kg/injection, schedule: Q04DX002 (ip), vehicle: saline with Tween-80 108 % of control and 112 % of control | [3] 98 % of control | [16] 96 % of control and 108 % of control | dose: 400.0 mg/kg/injection, schedule: Q04DX002 (ip), vehicle: saline with Tween-80 105 % of control

O=C(C#Cc1ccccc1)/C=C/c1ccccc1
inactive: [6] 88 % of control | [8] 98 % of control

Cc1ccccc1C(Cc1ccc(N2C(N)=NC(N)=NC2(C)C)cc1)C(=O)Nc1ccc(S(=O)(=O)F)cc1 (configuration not stated)
inactive: [6] 98 % of control | [8] 96 % of control | [10] 88 % of control

O=C(O)/C=C/C(=O)N1Cc2cc3ccccc3nc2C1
inactive: dose: 10.0 mg/kg/injection, schedule: Q04DX003 (ip), vehicle: saline 99 % of control | dose: 20.0 mg/kg/injection, schedule: Q04DX003 (ip), vehicle: saline 99 % of control | dose: 40.0 mg/kg/injection, schedule: Q04DX003 (ip), vehicle: saline 105 % of control | dose: 80.0 mg/kg/injection, schedule: Q04DX003 (ip), vehicle: saline 100 % of control | dose: 160.0 mg/kg/injection, schedule: Q04DX003 (ip), vehicle: saline 96 % of control

Cc1c([N+](=O)[O-])c(C)c([N+](=O)[O-])c(C(C)(C)C)c1[N+](=O)[O-]
inactive: [5] 93 % of control | [6] 92 % of control | [7] 94 % of control | [8] 100 % of control | [9] 96 % of control | [10] 94 % of control

O=C(Nc1cccc(Cl)c1)Oc1ccc2ccccc2c1
inactive: dose: 100.0 mg/kg/injection, schedule: Q01DX009 (ip), vehicle: saline 90 % of control | dose: 100.0 mg/kg/injection, schedule: Q04DX004 (ip), vehicle: saline 104 % of control | dose: 200.0 mg/kg/injection, schedule: Q01DX009 (ip), vehicle: saline 101 % of control | dose: 200.0 mg/kg/injection, schedule: Q04DX004 (ip), vehicle: saline 90 % of control | dose: 400.0 mg/kg/injection, schedule: Q01DX009 (ip), vehicle: saline 101 % of control | dose: 400.0 mg/kg/injection, schedule: Q04DX004 (ip), vehicle: saline 98 % of control

COC(=O)c1cc([N+](=O)[O-])c(C)s1
inactive: [11] 100 % of control | [12] 100 % of control | [13] 96 % of control

CCC(C)(C=O)C(C)=O (configuration not stated)
inactive: [4] 98 % of control | dose: 200.0 mg/kg/injection, schedule: Q04DX003 (ip), vehicle: saline 96 % of control | dose: 400.0 mg/kg/injection, schedule: Q04DX003 (ip), vehicle: saline 88 % of control

O=C(Nc1ccc(F)cc1)Nc1ccc(I)cc1
inactive: [5] 100 % of control and 92 % of control | [7] 100 % of control | [9] 96 % of control and 90 % of control

CC(=O)Nc1ccc(S(=O)(=O)Nc2cc(Cl)ccc2Cl)cc1
inactive: [14] 103 % of control | [15] 102 % of control | [16] 97 % of control

Cc1cc(N(CCCCl)CCCCl)ccc1C=Nc1cc(Cl)c(O)c(Cl)c1
inactive: [6] 104 % of control | [8] 98 % of control | [10] 101 % of control

COC(=O)c1ccccc1Cc1cccc2c(Cl)cccc12
inactive: dose: 100.0 mg/kg/injection, schedule: Q01DX001 (ip), vehicle: Klucel (hydroxypropylcellulose) (HPC) 97 % of control | dose: 200.0 mg/kg/injection, schedule: Q01DX001 (ip), vehicle: Klucel (hydroxypropylcellulose) (HPC) 98 % of control | dose: 400.0 mg/kg/injection, schedule: Q01DX001 (ip), vehicle: Klucel (hydroxypropylcellulose) (HPC) 106 % of control

CCn1ncc2ccccc2c1=O
inactive: [11] 96 % of control | [12] 97 % of control
